Assay results from the SangsterLogP compilation.

| Compound | logP |
| --- | --- |
| CC1CC(N2CCN(c3ccccc3)CC2)C(=O)O1 (centres undefined) | 1.56 |
| COc1cc2c(cc1OC)CN(C1CCOC1=O)CC2 (centres undefined) | 1.83 |
| O=C1OCCC1N1Cc2ccccc2C1 (centres undefined) | 1.2 |
| O=C1CC(N2CCN(c3ccccc3)CC2)CO1 (centres undefined) | 1.22 |
| CC1CC(NCc2ccccc2)C(=O)O1 (centres undefined) | 1.76 |
| O=C1OCCC1N1CCN(c2ccc(F)cc2)CC1 (centres undefined) | 2.05 |
| O=C1OCCC1N1CCc2ccccc2C1 (centres undefined) | 1.6 |
| Cc1cccc(C)c1NC1CCOC1=O (centres undefined) | 1.39 |
| COc1ccccc1N1CCN(C2CCOC2=O)CC1 (centres undefined) | 1.44 |
| COc1ccc(CNC2CCOC2=O)cc1 (centres undefined) | 1.43 |
| O=C1OCCC1N1CCC(c2ccccc2)CC1 (centres undefined) | 2.43 |
| COc1cc2c(cc1OC)C(c1ccccc1)N(C1CCOC1=O)CC2 (centres undefined) | 3.12 |
| COc1ccc(CCNC(C)=C2CCOC2=O)cc1OC | 2.53 |
| O=C1OCCC1NCc1ccccc1C(F)(F)F (centres undefined) | 1.83 |
| O=C(Cc1ccccc1)NC1CCOC1=O (centres undefined) | 0.8 |
| O=C1OCCC1N1C(=O)c2ccccc2C1=O (centres undefined) | 1.11 |
| O=C1OCCC1N1CCN(c2ccccc2)CC1 (centres undefined) | 1.65 |
| O=C1OCCC1N1CCN(c2cccc(C(F)(F)F)c2)CC1 (centres undefined) | 2.94 |
| O=C(NC1CCOC1=O)c1ccccc1 (centres undefined) | 0.84 |
| O=C1OCCC1NCc1ccccc1 (centres undefined) | 1.47 |
| CC(Nc1ccccc1)=C1CCOC1=O | 2.27 |
| CC(NCc1ccccc1)=C1CCOC1=O | 2.21 |
| O=C1OCCC1N1CCN(C(c2ccccc2)c2ccccc2)CC1 (centres undefined) | 3.28 |
| O=C1OCCC1Oc1ccc(Oc2ccccc2)cc1 (centres undefined) | 1.32 |
| O=C1OCCC1NCc1ccc(Cl)cc1 (centres undefined) | 1.97 |
| NC(=O)c1ccccc1OC1CCOC1=O (centres undefined) | 0.93 |
| COc1ccc(Cl)cc1N1CCN(C2CCOC2=O)CC1 (centres undefined) | 1.18 |
| COc1cccc(N2CCN(C3CCOC3=O)CC2)c1 (centres undefined) | 2.29 |
| COc1ccc(N2CCN(C3CCOC3=O)CC2)cc1 (centres undefined) | 1.46 |
